Reference: publication PMC5047689 (Disease Models & Mechanisms, 2016)

Columns and labels:
CLB-GE cells = experiment: Resazurin cell proliferation assay, neuroblastoma cell line; type: cell-based; details: Homo sapiens, 120 h, read-out: IC50, inhibition of proliferation
Method: Fig. 1. […] Treatment of neuroblastoma cells with the ALK TKIs crizotinib and PF-06463922. (A,B) Proliferation was assessed over 5 days using the resazurin cell proliferation assay in the following neuroblastoma cell lines: CLB-BAR, CLB-GE, CLB-PE, SK-N-AS and IMR32. Neuroblastoma cell line characteristics: CLB-GE – MYCN amplified, 1p deletion, 17q gain, amplified ALK amplicon containing an ALK^F1174V mutation; CLB-BAR – amplified MYCN/ALK, Δexon 4-11, 1p deletion, 17q gain; IMR32 – MYCN, wt sequence but exons 2-4 are amplified, 1p deletion, 17q gain; CLB-PE – 1p gain, amplified MYCN, 17q gain; SK-N-AS – IGF-1 overexpressing, 1p deletion, 1q gain, 17q gain, 17 deletion. […] Cells were harvested and pre-cleared cell lysates were analyzed on SDS PAGE followed by western blotting for ALK, phospho-ALK-Y1278, phospho-ERK5, pan-ERK5 phospho-ERK1/2 and pan-ERK. Actin was employed as a loading control. Protein band intensities were quantified by Image Studio Lite 3.1 and normalized to untreated samples.
The neuroblastoma CLB cell lines were from Valerie Combaret (Centre Leon Berard, France) under material transfer agreement and all cell lines were authenticated during the investigation with Affymetrix Cytoscan High Density array and compared with earlier cytoscans ([Schleiermacher et al., 2003]). […]

CLB-BAR cells = experiment: as above; type: cell-based; details: Homo sapiens, 120 h, read-out: IC50, inhibition of proliferation
Method: (§1) Fig. 1. […] (A,B) Proliferation was assessed over 5 days using the resazurin cell proliferation assay in the following neuroblastoma cell lines: CLB-BAR, CLB-GE, CLB-PE, SK-N-AS and IMR32. Neuroblastoma cell line characteristics: CLB-GE – MYCN amplified, 1p deletion, 17q gain, amplified ALK amplicon containing an ALK^F1174V mutation; CLB-BAR – amplified MYCN/ALK, Δexon 4-11, 1p deletion, 17q gain; IMR32 – MYCN, wt sequence but exons 2-4 are amplified, 1p deletion, 17q gain; CLB-PE – 1p gain, amplified MYCN, 17q gain; SK-N-AS – IGF-1 overexpressing, 1p deletion, 1q gain, 17q gain, 17 deletion. […] Cells were harvested and pre-cleared cell lysates were analyzed on SDS PAGE followed by western blotting for ALK, phospho-ALK-Y1278, phospho-ERK5, pan-ERK5 phospho-ERK1/2 and pan-ERK. Actin was employed as a loading control. Protein band intensities were quantified by Image Studio Lite 3.1 and normalized to untreated samples.
(§2) CLB-BAR, CLB-GE, CLB-PE, SK-N-AS and IMR32 neuroblastoma cells (0.25×10^6) were plated on collagen-coated 48-well plates.

IMR32 cells = experiment: as above; type: cell-based, human
Method: as §1, §2

SK-N-AS cells = experiment: as above; type: cell-based, human
Method: as §1, §2

CLB-PE cells = experiment: as above; type: cell-based, human
Method: as §1, §2

[1] = test system: CLB-GE subcutaneous xenograft; experiment: Subcutaneous CLB-GE (ALK^F1174V) xenograft in nude mice; type: in vivo, mouse
Method: Fig. 5. […] 4.5×10^6 CLB-GE cells were injected into left shoulder subcutaneously. (A) Tumor growth curves represent the average volume of vehicle group and PF-06463922-treated group, P≤0.05 (n=5 for each group). […] (C) Average body weight on the day of sacrifice is shown, P>0.05. (D) Immunoblotting analysis of indicated proteins from tumors collected after 8 days of treatment with vehicle or PF-0646399 and relapsed tumors. Tumor lysates were harvested, pre-cleared and analyzed by western blotting for ALK, phospho-ALK-Y1278, MYCN, phospho-ERK1/2 and phospho-AKT. Pan-ERK and pan-Akt were employed as loading controls. (E) Immunohistochemical staining of tumors for […] as a measure of proliferation rate as indicated. […] Data in all graphs presented as mean±s.d.
Mice were grouped by tumor volume randomly. […] Immunohistochemistry was as described ([Yamazaki et al., 2014]). […] (n=15).

[2] = test system: ALK (phospho-ALK-Y1278) and downstream signaling; experiment: Immunoblotting of ALK signaling in CLB-BAR and CLB-GE neuroblastoma cells; type: cell-based, human; details: 6 h treatment, western blot
Method: as §1, §2

[3] = set-up: method as in Johnson et al., 2014; Zou et al., 2015; details: ref Johnson et al., 2014, Zou et al., 2015, cited from earlier work
[4] = test system: EML4-ALK-driven brain metastases; set-up: method as in Zou et al., 2015; details: mouse; effect reversible upon withdrawal; ref Zou et al., 2015; cited from earlier work
[5] = target: ALK kinase domain mutants; experiment: In vitro kinase assay, summary over ALK kinase domain mutants; type: biochemical, human; details: including ALK^G1269A, read-out: inhibitor level for 50% reduction in activity, all kinase domain mutations tested
[6] = 10 mg/kg twice per day, oral gavage, 7 days
[7] = 10 mg/kg twice per day, tumor lysates, western blot

| Compound | IC50 (CLB-GE cells) [nM] | IC50 (CLB-BAR cells) [nM] | decrease in proliferation at high doses (IMR32 cells; high doses (500 nM)) | inhibition of proliferation (IMR32 cells; increasing doses, 5 days) | decrease in proliferation at high doses (SK-N-AS cells; high doses (500 nM)) | inhibition of proliferation (SK-N-AS cells; increasing doses, 5 days) | decrease in proliferation at high doses (CLB-PE cells; high doses (500 nM)) | inhibition of proliferation (CLB-PE cells; increasing doses, 5 days) | Ki-67 staining of tumors ([1]; 10 mg/kg twice per day, immunohistochemistry) | body weight during treatment [1, 6] | tumor size during treatment [1, 6] | MYCN expression in tumors [1, 7] | phosphorylated ALK, ERK1/2 and PKB/Akt in tumors [1, 7] | tumor re-growth after cessation of therapy ([1]; after 7 days of 10 mg/kg twice per day, treatment discontinued) | ALK Y1278 phosphorylation [2] | downstream signaling, pERK1/2 and pERK5 [2] | half-life ([3]; preclinical animal model) [h] | central nervous system penetration [3] | tumor volume and survival [4] | IC50 [5] [nM] |
| --- | --- | --- | --- | --- | --- | --- | --- | --- | --- | --- | --- | --- | --- | --- | --- | --- | --- | --- | --- | --- |
| C[C@@H](Oc1cc(-c2cnn(C3CCNCC3)c2)cnc1N)c1c(Cl)ccc(F)c1Cl [crizotinib] | 240 ± 27 | – | – | – | – | – | – | – | – | – | – | – | – | – | – | – | – | – | – | – |
| C[C@H]1Oc2cc(cnc2N)-c2c(nn(C)c2C#N)CN(C)C(=O)c2ccc(F)cc21 [PF-06463922, (10R)-7-amino-12-fluoro-2,10,16-trimethyl-15-oxo-10,15,16,17-tetrahydro-2H-8,4-(metheno)pyrazolo[4,3-h][2,5,11]-benzoxadiazacyclotetradecine-3-carbonitrile] | 25 ± 2 | 16 ± 2 | not observed | did not observe inhibition of proliferation | not observed | did not observe inhibition of proliferation | not observed | did not observe inhibition of proliferation | reduced staining of the proliferation marker Ki-67 | no observed loss of body weight | no increase of tumor size during treatment | reduced expression of MYCN | Inhibition of phosphorylated ALK, ERK1/2 and PKB/Akt was observed | Tumor re-growth was observed 7 days after cessation of therapy | loss of tyrosine 1278 (Y1278) phosphorylation on ALK | inhibition of downstream signaling | 2.7 | ability to penetrate the central nervous system | regression of tumor volume and prolonged mouse survival | < 6.5 |
